The species named for one assay is Rattus norvegicus. Kind of assay: Inhibition of ouabain-induced myocardial arrhythmias in rat. Type of assay: functional, organism-based.
The species entered for another assay is Cavia porcellus. In words: Inhibition of CaCl2-induced myocardial arrhythmias in guinea pig. In kind it is functional, organism-based.

Activity calls are given as the source filed them. The calls are words filed in the database; no cut-off is given here.

Our source for the Activity values is ChEMBL document CHEMBL1151104, “Mollinedine, a New Alkaloid from Mollinedia costaricensis” (J Nat Prod, 1988).

Regarding `c1cc2cc3c(cc2c(Cc2ccc4c(c2)OCO4)n1)OCO3`, the result in the assay filed under Rattus norvegicus and in the assay listed under Cavia porcellus was Active.
